In patent US8829007B2 (priority 2009, dated 2014):
Read-outs that look alike come from different tables or passages of the source.

Test system: influenza A virus (A/PR/8/34)
Experiment: microbe, parasite or virus in culture
Assay type: cell-based
[1] = Influenza A virus, PR/8, MDCK, mean all, A/PR/8/34 infected MDCK cells, CPE assay, read-out: IC50
[2] = Influenza A virus, PR/8, MDCK, MDCK cells infected with A/PR/8/34, cell protection (CPE), read-out: IC50 (mean all)
[3] = Influenza A virus, PR/8, MDCK, MDCK cells infected with A/PR/8/34, survival of infected cells, class symbols, read-out: IC50 (mean all)

Row | Molecule | IC50 [1] | IC50 [2] | other results
1 | CCC(=O)N[C@@H]1CCCC[C@H]1Nc1nc(-c2c[nH]c3ncc(Cl)cc23)ncc1F (relative stereo) [Compound 349, N-[trans-2-[[2-(5-chloro-1H-pyrrolo[2,3-b]pyridin-3-yl)-5-fluoro-pyrimidin-4-yl]amino]cyclohexyl]propanamide] | > 20 µM | – | –
2 | CCCC(=O)N[C@@H]1CCCC[C@H]1Nc1nc(-c2c[nH]c3ncc(Cl)cc23)ncc1F (relative stereo) [Compound 363, N-[trans-2-[[2-(5-chloro-1H-pyrrolo[2,3-b]pyridin-3-yl)-5-fluoro-pyrimidin-4-yl]amino]cyclohexyl]butanamide] | > 20 µM | – | –
3 | CC(=O)N1CCCC[C@H]1CNc1nc(-c2c[nH]c3ncccc23)ncc1F [Compound 256, (S)-1-(2-((5-fluoro-2-(1H-pyrrolo[2,3-b]pyridin-3-yl)pyrimidin-4-ylamino)methyl)piperidin-1-yl)ethanone] | – | 5 to 20 µM | –
4 | CCC(=O)N[C@@H]1CCCC[C@H]1Nc1nc(-c2c[nH]c3ncccc23)ncc1F [Compound 356, N-[(1R,2R)-2-[[5-fluoro-2-(1H-pyrrolo[2,3-b]pyridin-3-yl)pyrimidin-4-yl]amino]cyclohexyl]propanamide] | > 20 µM | – | –
5 | CS(=O)(=O)N[C@@H]1CCCC[C@H]1Nc1nc(-c2c[nH]c3ncc(Cl)cc23)ncc1F [Compound 353, N-[(1R,2R)-2-[[2-(5-chloro-1H-pyrrolo[2,3-b]pyridin-3-yl)-5-fluoro-pyrimidin-4-yl]amino]cyclohexyl]methanesulfonamide] | > 20 µM | – | –
6 | O=C1NCCCC[C@@H]1Nc1ccnc(-c2c[nH]c3ncc(F)cc23)n1 [Compound 501] | – | – | IC50 [3]: 5 to 20 µM
7 | CCC(=O)N1CCOC(CNc2nc(-c3c[nH]c4ncc(Cl)cc34)ncc2F)C1 (stereo not drawn) [Compound 449, 1-(2-((2-(5-chloro-1H-pyrrolo[2,3-b]pyridin-3-yl)-5-fluoropyrimidin-4-ylamino)methyl)morpholino)propan-1-one] | 5 to 20 µM | – | –
8 | O=C(c1nccs1)N1CCCC[C@H]1CNc1nc(-c2c[nH]c3ncc(Cl)cc23)ncc1F [Compound 165, (S)-(2-((2-(5-chloro-1H-pyrrolo[2,3-b]pyridin-3-yl)-5-fluoropyrimidin-4-ylamino)methyl)piperidin-1-yl)(thiazol-2-yl)methanone] | – | > 20 µM | –
9 | O=C(N[C@@H]1CCCC[C@H]1Nc1nc(-c2c[nH]c3ncccc23)ncc1F)C1CCCC1 [Compound 359, N-[(1R,2R)-2-[[5-fluoro-2-(1H-pyrrolo[2,3-b]pyridin-3-yl)pyrimidin-4-yl]amino]cyclohexyl]cyclopentanecarboxamide] | > 20 µM | – | –
10 | CCCS(=O)(=O)N1CC[C@H](Nc2nc(-c3c[nH]c4ncc(Cl)cc34)ncc2F)C1 [Compound 410, (S)-2-(5-chloro-1H-pyrrolo[2,3-b]pyridin-3-yl)-5-fluoro-N-(1-(propylsulfonyl)pyrrolidin-3-yl)pyrimidin-4-amine] | 5 to 20 µM | – | –
11 | (S)-6-(2-(5-chloro-1H-pyrrolo[2,3-b]pyridin-3-yl)-5-fluoropyrimidin-4-ylamino)-4-(4-methoxybenzyl)-1,4-oxazepan-2-one [Compound 505] | – | – | IC50 (read-out: IC50 (mean all)): 5 to 20 µM
12 | CCN(CC)C(=O)[C@@H]1CCCC[C@@H]1Nc1nc(-c2c[nH]c3ncc(Cl)cc23)ncc1F [Compound 518, (1R,2S)-2-(2-(5-chloro-1H-pyrrolo[2,3-b]pyridin-3-yl)-5-fluoropyrimidin-4-ylamino)-N,N-diethylcyclohexanecarboxamide] | – | – | IC50 [3]: > 20 µM
13 | CCCCS(=O)(=O)N1CC[C@H](Nc2nc(-c3c[nH]c4ncc(Cl)cc34)ncc2F)C1 [Compound 402, (S)—N-(1-(butylsulfonyl)pyrrolidin-3-yl)-2-(5-chloro-1H-pyrrolo[2,3-b]pyridin-3-yl)-5-fluoropyrimidin-4-amine] | 5 to 20 µM | – | –
14 | O=C(O)[C@H]1C[C@H]1C(=O)N1CCC[C@H](CNc2nc(-c3c[nH]c4ncc(Cl)cc34)ncc2F)C1 [Compound 83, (1S,2R)-2-((R)-3-((2-(5-chloro-1H-pyrrolo[2,3-b]pyridin-3-yl)-5-fluoropyrimidin-4-ylamino)methyl)piperidine-1-carbonyl)cyclopropanecarboxylic acid] | – | > 20 µM | –
15 | CC(C)OC(=O)N1CCOC(CNc2nc(-c3c[nH]c4ncc(Cl)cc34)ncc2F)C1 (stereo not drawn) [Compound 447, Isopropyl 2-((2-(5-chloro-1H-pyrrolo[2,3-b]pyridin-3-yl)-5-fluoropyrimidin-4-ylamino)methyl)morpholine-4-carboxylate] | > 20 µM | – | –
16 | CCCNC(=O)N[C@@H]1CCCC[C@H]1Nc1nc(-c2c[nH]c3ncccc23)ncc1F [Compound 370, 1-[(1R,2R)-2-[[5-fluoro-2-(1H-pyrrolo[2,3-b]pyridin-3-yl)pyrimidin-4-yl]amino]cyclohexyl]-3-propyl-urea] | > 20 µM | – | –
17 | N[C@@H]1CCCC[C@H]1Nc1nc(-c2c[nH]c3ncc(Cl)cc23)ncc1Cl [Compound 115, (1R,2R)—N1-(5-chloro-2-(5-chloro-1H-pyrrolo[2,3-b]pyridin-3-yl)pyrimidin-4-yl)cyclohexane-1,2-diamine] | – | > 20 µM | –

Row | Molecule | IC50 [1] | IC50 [2] | other results
18 | O=C(N[C@@H]1CCCC[C@H]1Nc1nc(-c2c[nH]c3ncc(Cl)cc23)ncc1F)c1ccccc1 (relative stereo) [Compound 365, N-[trans-2-[[2-(5-chloro-1H-pyrrolo[2,3-b]pyridin-3-yl)-5-fluoro-pyrimidin-4-yl]amino]cyclohexyl]benzamide] | > 20 µM | – | –
19 | C[C@@H](CO)CN1CCC[C@@H](CNc2nc(-c3c[nH]c4ncc(Cl)cc34)ncc2F)C1 [Compound 141, (R)-3-((S)-3-((2-(5-chloro-1H-pyrrolo[2,3-b]pyridin-3-yl)-5-fluoropyrimidin-4-ylamino)methyl)piperidin-1-yl)-2-methylpropan-1-ol] | – | > 20 µM | –
20 | COP(=O)(OC)[C@]1(O)CCC[C@H](Nc2nc(-c3c[nH]c4ncc(Cl)cc34)ncc2F)C1 [Compound 742] | – | – | IC50 (read-out: IC50): < 5 µM
21 | CCOc1ccccc1C(=O)N1CCC[C@H](CNc2nc(-c3c[nH]c4ncc(Cl)cc34)ncc2F)C1 [Compound 158, (R)-(3-((2-(5-chloro-1H-pyrrolo[2,3-b]pyridin-3-yl)-5-fluoropyrimidin-4-ylamino)methyl)piperidin-1-yl)(2-ethoxyphenyl)methanone] | – | < 5 µM | –
22 | COC(=O)N1CCCC(Nc2nc(-c3c[nH]c4ncc(Cl)cc34)ncc2F)CC1 (stereo not drawn) [Compound 498, methyl 4-(2-(5-chloro-1H-pyrrolo[2,3-b]pyridin-3-yl)-5-fluoropyrimidin-4-ylamino)azepane-1-carboxylate] | – | – | IC50 [3]: < 5 µM
23 | CS(=O)(=O)N1CCCC(Nc2nc(-c3c[nH]c4ncc(Cl)cc34)ncc2F)CC1 (stereo not drawn) [Compound 496, N-(2-(5-chloro-1H-pyrrolo[2,3-b]pyridin-3-yl)-5-fluoropyrimidin-4-yl)-1-(methylsulfonyl)azepan-4-amine] | – | – | IC50 [3]: 5 to 20 µM
24 | O=C(N[C@@H]1CCCC[C@H]1Nc1nc(-c2c[nH]c3ncc(Cl)cc23)ncc1F)c1ccccc1 [Compound 352, N-[(1R,2R)-2-[[2-(5-chloro-1H-pyrrolo[2,3-b]pyridin-3-yl)-5-fluoro-pyrimidin-4-yl]amino]cyclohexyl]benzamide] | > 20 µM | – | –
25 | CCNC(=O)N1CCC[C@H](CNc2nc(-c3c[nH]c4ncccc34)ncc2F)C1 [Compound 275, (R)—N-ethyl-3-((5-fluoro-2-(1H-pyrrolo[2,3-b]pyridin-3-yl)pyrimidin-4-ylamino)methyl)piperidine-1-carboxamide] | – | 5 to 20 µM | –
26 | O=C(c1c(Cl)cccc1Cl)N1CCC[C@H](CNc2nc(-c3c[nH]c4ncc(Cl)cc34)ncc2F)C1 [Compound 96, (R)-(3-((2-(5-chloro-1H-pyrrolo[2,3-b]pyridin-3-yl)-5-fluoropyrimidin-4-ylamino)methyl)piperidin-1-yl)(2,6-dichlorophenyl)methanone] | – | 5 to 20 µM | –
27 | O=C(CC1CCCCC1)N1CCCC[C@@H]1CNc1nc(-c2c[nH]c3ncc(Cl)cc23)ncc1F [Compound 294, (R)-1-(2-((2-(5-chloro-1H-pyrrolo[2,3-b]pyridin-3-yl)-5-fluoropyrimidin-4-ylamino)methyl)piperidin-1-yl)-2-cyclohexylethanone] | – | > 20 µM | –
28 | CN(C)C(=O)N1CCC[C@@H](CNc2nc(-c3c[nH]c4ncccc34)ncc2F)C1 [Compound 228, (S)-3-((5-fluoro-2-(1H-pyrrolo[2,3-b]pyridin-3-yl)pyrimidin-4-ylamino)methyl)-N,N-dimethylpiperidine-1-carboxamide] | – | 5 to 20 µM | –
29 | CCC(=O)N[C@@H]1CCCC[C@@H]1Nc1nc(-c2c[nH]c3ncccc23)ncc1F (relative stereo) [Compound 341, N-[cis-2-[[5-fluoro-2-(1H-pyrrolo[2,3-b]pyridin-3-yl)pyrimidin-4-yl]amino]-cyclohexyl]propanamide] | > 20 µM | – | –
30 | CCCNC(=O)N[C@@H]1CCCC[C@H]1Nc1nc(-c2c[nH]c3ncc(Cl)cc23)ncc1F [Compound 355, 1-[(1R,2R)-2-[[2-(5-chloro-1H-pyrrolo[2,3-b]pyridin-3-yl)-5-fluoro-pyrimidin-4-yl]amino]cyclohexyl]-3-propyl-urea] | > 20 µM | – | –
31 | CCNC(=O)[C@H]1CCCC[C@@H]1Nc1nc(-c2c[nH]c3ncc(Cl)cc23)ncc1F [Compound 521, (1S,2S)-2-(2-(5-chloro-1H-pyrrolo[2,3-b]pyridin-3-yl)-5-fluoropyrimidin-4-ylamino)-N-ethylcyclohexanecarboxamide] | – | – | IC50 [3]: 5 to 20 µM
32 | CCNC(=O)[C@@H]1CCCC[C@@H]1Nc1nc(-c2c[nH]c3ncc(Cl)cc23)ncc1F [Compound 519, (1R,2S)-2-(2-(5-chloro-1H-pyrrolo[2,3-b]pyridin-3-yl)-5-fluoropyrimidin-4-ylamino)-N-ethylcyclohexanecarboxamide] | – | – | IC50 [3]: 5 to 20 µM
33 | Fc1cnc(-c2c[nH]c3ncc(Cl)cc23)nc1N[C@H]1CCN(CC2CC2)C1 [Compound 415, (S)-2-(5-chloro-1H-pyrrolo[2,3-b]pyridin-3-yl)-N-(1-(cyclopropylmethyl)pyrrolidin-3-yl)-5-fluoropyrimidin-4-amine] | > 20 µM | – | –
